# Laboratory results reported in the supplement of paper PMC4314810.
# ± gives the standard deviation of the averaged measurements.
# Test system: MCF7
# Assay: HRG-induced Akt activation (dPAkt = log2 pAkt/Akt HRG-stimulated minus log2 pAkt/Akt basal) (log2 ratio difference); higher = stronger HRG-induced Akt(T308) phosphorylation
# Details: miRNA mimic concentration 10 nM; time after transfection 72 h; heregulin 10 ng/ml; stimulation time 1 h
# In short: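 MCF7 cells ([…], 96-well plates) carrying one of 879 miRNA mimics, transfected at 10 nM final with Lipofectamine RNAiMax in two biological replicates, were stimulated after 72 h with 10 ng/ml heregulin-beta1 for 1 h or left unstimulated. Phospho-Akt(T308) and total Akt in cells fixed with 4% PFA were read by In-Cell Western on an Odyssey and corrected for column-wise fixation decay to give log2(pAkt/Akt). Heregulin-induced Akt activation is the replicate mean of stimulated minus unstimulated ratios.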
row,Sequence,HRG-induced Akt activation (log2)
1,AAGACGGGAGGAAAGAAGGGAG,1.22 ± 0.24
2,UGAGUAUUACAUGGCCAAUCUC,1.74 ± 0.27
3,GUGUCUGCUUCCUGUGGGA,2.6 ± 0.069
4,UGUUCAUGUAGAUGUUUAAGC,1.08 ± 0.15
5,GAAGUUGUUCGUGGUGGAUUCG,2.11 ± 0.022
6,AAUGGCGCCACUAGGGUUGUG,1.42 ± 0.35
7,AUCCCUUGCAGGGGCUGUUGGGU,1.02 ± 0.69
8,GUUCUCCCAACGUAAGCCCAGC,1.62 ± 0.15
9,UGGAAUGUAAAGAAGUAUGUAU,1.76 ± 0.27
10,CUGUACAGGCCACUGCCUUGC,1.88 ± 0.41
11,UUGCUCACUGUUCUUCCCUAG,0.86933 ± 0.00015
12,GGGCGCCUGUGAUCCCAAC,1.62 ± 0.015
13,GCUGACUCCUAGUCCAGGGCUC,1.53 ± 0.099
14,AAACUACUGAAAAUCAAAGAU,1.76 ± 0.11
15,AUCAUAGAGGAAAAUCCAUGUU,1.64 ± 1
16,CAUCUUACUGGGCAGCAUUGGA,2.05 ± 0.12
17,UACCCUGUAGAUCCGAAUUUGUG,1.47 ± 0.25
18,GUAGAGGAGAUGGCGCAGGG,1.33 ± 0.22
19,UAGUGCAAUAUUGCUUAUAGGGU,0.808 ± 0.069
20,GAUUGCUCUGCGUGCGGAAUCGAC,1.24 ± 0.29
21,AGUCAUUGGAGGGUUUGAGCAG,1.86 ± 0.057
22,AAUAUUAUACAGUCAACCUCU,1.21 ± 0.51

row,Sequence,HRG-induced Akt activation (log2)
1,UUCUGGAAUUCUGUGUGAGGGA,1.78 ± 0.2
2,GAAUGUUGCUCGGUGAACCCCU,1.33 ± 0.039
3,ACCGUGGCUUUCGAUUGUUACU,1.58 ± 0.11
4,GAUGAUGAUGGCAGCAAAUUCUGAAA,1.87 ± 0.33
5,UGUGACAGAUUGAUAACUGAAA,1.84 ± 0.056
6,AGGACCUGCGGGACAAGAUUCUU,1.6 ± 0.091
7,AUCCGCGCUCUGACUCUCUGCC,1.53 ± 0.14
8,CUAUACAAUCUACUGUCUUUC,1.11 ± 0.051
9,AGGGCCCCCCCUCAAUCCUGU,1.95 ± 0.39
10,GACACGGGCGACAGCUGCGGCCC,1.03 ± 0.89
11,UGAGGUAGUAGUUUGUACAGUU,1.47 ± 0.12
12,GCAGCAGAGAAUAGGACUACGUC,1.7 ± 0.032
13,CACCCGUAGAACCGACCUUGCG,1.4 ± 0.22
14,ACAAAGUGCUUCCCUUUAGAGUGU,1.41 ± 0.53
15,CCAGUGGGGCUGCUGUUAUCUG,1.78 ± 0.29
16,UUUUGCGAUGUGUUCCUAAUAU,1.67 ± 0.12
17,GCAUGGGUGGUUCAGUGG,1.52 ± 0.11
18,GAGCUUAUUCAUAAAAGUGCAG,1.76 ± 0.036
19,CAAAGCGCUUCCCUUUGGAGC,1.259 ± 0.0069
20,UAUACAAGGGCAAGCUCUCUGU,1.05 ± 0.18
21,GUUCAAAUCCAGAUCUAUAAC,1.08 ± 0.18
22,UUGAGAAGGAGGCUGCUG,1.18 ± 0.17

row,Sequence,HRG-induced Akt activation (log2)
1,AGUUAGGAUUAGGUCGUGGAA,1 ± 0.39
2,CUUCUUGUGCUCUAGGAUUGU,1.13 ± 0.024
3,UCGUGUCUUGUGUUGCAGCCGG,1.14 ± 0.13
4,CUGGACUGAGCCGUGCUACUGG,1.98 ± 0.076
5,AUGGUUCCGUCAAGCACCAUGG,1.87 ± 0.22
6,AAGUGCUGUCAUAGCUGAGGUC,0.879 ± 0.58
7,AAAUCUCUGCAGGCAAAUGUGA,1.19 ± 0.11
8,ACCACUGACCGUUGACUGUACC,1.81 ± 0.74
9,ACGCCCUUCCCCCCCUUCUUCA,1.22 ± 0.47
10,CCUCAGGGCUGUAGAACAGGGCU,1.49 ± 0.21
11,GGAUUCCUGGAAAUACUGUUCU,1.2 ± 0.74
12,AGUUUUGCAGGUUUGCAUCCAGC,1.36 ± 0.22
13,UACUCAAAAAGCUGUCAGUCA,1.02 ± 0.51
14,UCCCACGUUGUGGCCCAGCAG,1.44 ± 0.14
15,UAUGCAUUGUAUUUUUAGGUCC,1.1 ± 0.81
16,UAGGACACAUGGUCUACUUCU,1.04 ± 0.19
17,UAGUACUGUGCAUAUCAUCUAU,1.44 ± 0.47
18,AAAAGUAAUUGCGAGUUUUACC,1.34 ± 0.091
19,AAUCAUACACGGUUGACCUAUU,1.41 ± 0.42
20,ACUUUAACAUGGAAGUGCUUUC,1.17 ± 0.09
21,CUCCCACAUGCAGGGUUUGCA,1.81 ± 0.022
22,AGGAAGCCCUGGAGGGGCUGGAG,1.1 ± 0.6

row,Sequence,HRG-induced Akt activation (log2)
1,GUCCAGUUUUCCCAGGAAUCCCU,1.7 ± 0.2
2,GAAAGCGCUUCUCUUUAGAGG,1.51 ± 0.33
3,UACGUCAUCGUUGUCAUCGUCA,1.21 ± 0.51
4,UAAGUGCUUCCAUGUUUCAGUGG,0.9677 ± 0.0067
5,AUAUUACCAUUAGCUCAUCUUU,1.42 ± 0.089
6,GUGGGUACGGCCCAGUGGGGGG,1.24 ± 0.18
7,UGCACCAUGGUUGUCUGAGCAUG,1.29 ± 0.33
8,AACAUUCAACCUGUCGGUGAGU,2.38 ± 0.33
9,AAGGAGCUCACAGUCUAUUGAG,1.97 ± 0.2
10,UGGAAUGUAAGGAAGUGUGUGG,2.05 ± 0.28
11,CAGCAGCAAUUCAUGUUUUGAA,1.53 ± 0.33
12,UAAAGAGCCCUGUGGAGACA,1.58 ± 0.083
13,CCACACCGUAUCUGACACUUU,1.36 ± 0.12
14,AACGCCAUUAUCACACUAAAUA,1.14 ± 0.04
15,ACCCUAUCAAUAUUGUCUCUGC,1.33 ± 0.23
16,GUGUCUGGGCGGACAGCUGC,1.87 ± 0.23
17,UUAAUGCUAAUCGUGAUAGGGGU,0.789 ± 0.062
18,UGUGACUGGUUGACCAGAGGGG,1.6 ± 0.2
19,ACUUACAGACAAGAGCCUUGCUC,1.68 ± 0.16
20,UAAAGUGCUGACAGUGCAGAU,1.52 ± 0.054
21,CUUUUUGCGGUCUGGGCUUGC,2.31 ± 0.28
22,AAAAGUAAUUGCGGAUUUUGCC,0.977 ± 0.53

row,Sequence,HRG-induced Akt activation (log2)
1,UUGGGACAUACUUAUGCUAAA,1.28 ± 0.2
2,GUGAACGGGCGCCAUCCCGAGG,1.9231 ± 0.00011
3,GUUGGAGGAUGAAAGUACGGAGUGAU,0.878 ± 1.2
4,UAAAUCCCAUGGUGCCUUCUCCU,2.03 ± 0.12
5,AAGAUGUGGAAAAAUUGGAAUC,1.68 ± 0.17
6,UACCCAGAGCAUGCAGUGUGAA,1.78 ± 0.12
7,AGUGGGGAACCCUUCCAUGAGG,1.94 ± 0.25
8,UGACAACUAUGGAUGAGCUCU,1.53 ± 0.29
9,UCAGUGCACUACAGAACUUUGU,0.519 ± 0.1
10,AGGGGUGCUAUCUGUGAUUGA,1.68 ± 0.19
11,UGGUUUACCGUCCCACAUACAU,0.811 ± 0.33
12,CCUGGAAACACUGAGGUUGUG,1.61 ± 0.12
13,UGUAAACAUCCUACACUCUCAGC,0.867 ± 0.099
14,UGUGCAAAUCUAUGCAAAACUGA,0.8263 ± 0.0053
15,UGCGGGGCUAGGGCUAACAGCA,2.49 ± 0.31
16,AUGCUGACAUAUUUACUAGAGG,0.706 ± 0.25
17,UUCUCGAGGAAAGAAGCACUUUC,1.61 ± 0.16
18,AGUAUUCUGUACCAGGGAAGGU,1.96 ± 0.043
